From ChEMBL document CHEMBL1614630, “Extrapolation of preclinical pharmacokinetics and molecular feature analysis of "discovery-like" molecules to predict human pharmacokinetics” (Drug Metab Dispos, 2006) come the findings set out here.

Series [1] in a line: Clearance in monkey after iv administration. The following applies: macaca, in vivo.
A short description of series [2]: Clearance in dog after iv administration. The settings on record: in vivo.
A short description of series [3]: Clearance in rat after iv administration. The settings on record: in vivo.
The nature of series [4]: Volume of distribution at steady state in rat after iv administration. The following applies: in vivo.
Series [5] can be described thus: Clearance in human after iv administration. The following applies: in vivo.
The nature of series [6]: Volume of distribution at steady state in dog after iv administration. The following applies: in vivo.
Series [7] can be described thus: Volume of distribution at steady state in human after iv administration. The following applies: in vivo.
A short description of series [8]: Volume of distribution at steady state in monkey after iv administration. The following applies: macaca, in vivo.

As a reminder, the clearance is the volume of plasma or blood freed of the substance per unit of time. A word on the Vdss: it is a proportionality between amount in the body and measured concentration, not a real space. As usually defined, the Vd is the apparent volume that relates the amount in the body to the concentration in plasma or blood.

For `CCCN1CCC[C@@H](c2cccc(S(C)(=O)=O)c2)C1`, the clearance in series [1] came to 33.3 mL/min/kg; in series [2], 36.7 mL/min/kg; in series [3], 46.7 mL/min/kg; in series [5] it was 7.2 mL/min/kg. Further, in series [4], the Vdss was found to be 1.5 L/kg. Moreover, the Vd in series [6] was 2.5 L/kg; in series [7] it was 2.2 L/kg; in series [8], 1.4 L/kg.

As to `OC(CCN1CCCCC1)(c1ccccc1)C1CC2C=CC1C2` (stereo not given) [BIPERIDEN], the values for the clearance in series [1], in series [2] and in series [5] were 21.9 mL/min/kg, 27 mL/min/kg and 15.3 mL/min/kg, respectively. Further, the Vdss in series [4] amounted to 14 L/kg. In addition, the Vd in series [6] came out at 9.5 L/kg; in series [7], 6.2 L/kg; in series [8] it was 3.6 L/kg.

On to `COC(=O)C1=C(C)NC(C)=C(C(=O)OC)C1c1ccccc1[N+](=O)[O-]` [NIFEDIPINE], for which the Vdss in series [4] worked out at 0.13 L/kg. In addition, the Vd amounted to 1.15 L/kg in series [6] and 0.5 L/kg in series [8].

Consider `COc1ccc([C@@H]2Sc3ccccc3N(CCN(C)C)C(=O)[C@@H]2OC(C)=O)cc1` [DILTIAZEM], for which the clearance in series [1] was 34.5 mL/min/kg; in series [2], 59 mL/min/kg; in series [3], 82.3 mL/min/kg; in series [5], 12 mL/min/kg. Further, in series [4], the Vdss was found to be 3.6 L/kg. For the same molecule, the Vd in series [6] came out at 21.4 L/kg; in series [8], 3.5 L/kg.

As to `CC#C[C@]1(O)CC[C@H]2[C@@H]3CCC4=CC(=O)CCC4=C3[C@@H](c3ccc(N(C)C)cc3)C[C@@]21C` [MIFEPRISTONE], the clearance in series [1] is 24.2 mL/min/kg; in series [2] it was 15.6 mL/min/kg; in series [3], 50 mL/min/kg; in series [5], 0.33 mL/min/kg. The same molecule registered a Vdss in series [4] of 4.3 L/kg. In addition, the Vd in series [6] is 10.5 L/kg; in series [7] it was 0.3 L/kg; in series [8], 32.5 L/kg.

As for `C[C@H]1NCc2cc(-c3ccc4c(=O)c(C(=O)O)cn(C5CC5)c4c3OC(F)F)ccc21` [GARENOXACIN], the clearance in series [1] came to 3.4 mL/min/kg; in series [2], 2.4 mL/min/kg; in series [3], 12.1 mL/min/kg; in series [5], 1.2 mL/min/kg. The same molecule displayed a Vdss in series [4] of 0.9 L/kg. Further, the Vd in series [6] was determined as 1.3 L/kg; in series [7], 1 L/kg; in series [8], 1 L/kg.

With `CCOc1cc(Cc2cnc(N)nc2N)cc(OCC)c1-n1cccc1` [EPIROPRIM], the clearance in series [1] was determined as 30.6 mL/min/kg; in series [2] it was 10.7 mL/min/kg; in series [3], 45 mL/min/kg; in series [5], 3.5 mL/min/kg. Moreover, the Vdss in series [4] was found to be 4.6 L/kg. The distribution volume (Vd) in series [6] is 8.3 L/kg; in series [7], 2.5 L/kg; in series [8] it was 5.1 L/kg.

`CN(C)CCCN1c2ccccc2Sc2ccc(Cl)cc21` [CHLORPROMAZINE]: the clearance in series [1] was found to be 24.6 mL/min/kg; in series [2] it was 53 mL/min/kg; in series [3], 61 mL/min/kg; in series [5], 4.3 mL/min/kg. The molecule also yielded a Vdss in series [4] of 29.1 L/kg. In addition, the Vd in series [6] worked out at 16.3 L/kg; in series [7] it was 11.2 L/kg; in series [8], 8 L/kg.

The molecule `O=C(CCCN1CCC(O)(c2ccc(Cl)cc2)CC1)c1ccc(F)cc1` [HALOPERIDOL] registered a Vdss in series [4] of 10.4 L/kg. The Vd in series [6] stood at 37 L/kg; in series [8] it was 6.6 L/kg.

As to `Cc1ncc2n1-c1ccc(Cl)cc1C(c1ccccc1F)=NC2` [MIDAZOLAM], the clearance in series [1] was found to be 24.2 mL/min/kg; in series [2], 27 mL/min/kg; in series [3], 67 mL/min/kg; in series [5] it was 6.6 mL/min/kg. Further, in series [4], the Vdss came out at 1.6 L/kg. In addition, the Vd was found to be 3 L/kg in series [6], 1.1 L/kg in series [7] and 1.5 L/kg in series [8].

As for `CCC1=C[C@@H]2CN(C1)Cc1c([nH]c3ccccc13)[C@@](C(=O)OC)(c1cc3c(cc1OC)N(C)[C@H]1[C@@](O)(C(=O)OC)[C@H](OC(C)=O)[C@]4(CC)C=CCN5CC[C@]31[C@@H]54)C2` [VINORELBINE], the clearance in series [1] was determined as 23.6 mL/min/kg; in series [2] it was 20 mL/min/kg; in series [3], 31.7 mL/min/kg; in series [5], 21 mL/min/kg. The same molecule gave a Vdss in series [4] of 24.4 L/kg. Moreover, the Vd is 49.6 L/kg in series [6], 75.6 L/kg in series [7] and 11.4 L/kg in series [8].

As for `CC1COc2c(N3CCN(C)CC3)c(F)cc3c(=O)c(C(=O)O)cn1c23` (stereo not given) [OFLOXACIN], the clearance in series [1] stood at 7.5 mL/min/kg; in series [2], 2.65 mL/min/kg; in series [3], 26.3 mL/min/kg; in series [5] it was 4.53 mL/min/kg. This molecule gave a Vdss in series [4] of 1.66 L/kg. In addition, the results for the Vd in series [6], in series [7] and in series [8] were 1.15 L/kg, 1.78 L/kg and 1.6 L/kg, respectively.

For `Cc1cc(C)c(/C=C2\C(=O)Nc3ccccc32)[nH]1` [SEMAXANIB], the clearance came to 25.7 mL/min/kg in series [1], 52 mL/min/kg in series [2], 45 mL/min/kg in series [3] and 14 mL/min/kg in series [5]. In series [4], this molecule had a Vdss of 1.6 L/kg. In addition, the Vd in series [6] was 1.4 L/kg; in series [7], 0.98 L/kg; in series [8], 1.45 L/kg.

Turning to `COc1ccc([C@H](CC(=O)O)N2CCN(CCCc3ccc4c(n3)NCCC4)C2=O)cn1`, the clearance in series [1] worked out at 9 mL/min/kg; in series [2], 5.4 mL/min/kg; in series [5] it was 1 mL/min/kg. Further, the distribution volume (Vdss) in series [4] worked out at 1.5 L/kg. The Vd in series [6] turned out to be 0.9 L/kg; in series [7] it was 0.2 L/kg; in series [8], 0.3 L/kg.

On to `CCN1CCC[C@H]1CNC(=O)c1c(OC)ccc(Br)c1OC` [REMOXIPRIDE], for which the clearance in series [1] was determined as 11.8 mL/min/kg; in series [2], 4.9 mL/min/kg; in series [3], 170 mL/min/kg; in series [5] it was 1.7 mL/min/kg. The Vdss in series [4] was 4.5 L/kg. The Vd in series [6] stood at 1.6 L/kg; in series [7], 0.7 L/kg; in series [8] it was 1.1 L/kg.

As to `COc1ccc(Cl)cc1[C@]1(F)C(=O)Nc2cc(C(F)(F)F)ccc21` [FLINDOKALNER], the clearance in series [1] came to 40.2 mL/min/kg; in series [2] it was 3.1 mL/min/kg; in series [3] it was 29.9 mL/min/kg; in series [5], 7.63 mL/min/kg. In series [4], this molecule returned a Vdss of 3.4 L/kg. Also, the Vd is 3.2 L/kg in series [6], 2.35 L/kg in series [7] and 5.4 L/kg in series [8].
